Experimental data: patent US20260049072A1, “HETEROCYCLIC COMPOUND FOR INDUCING DEGRADATION OF MUTANT KRAS PROTEIN” (Astellas Pharma Inc., priority 2022, published 2026)

Target: T1, RAS G12D (Homo sapiens, UniProt P01116, G12D)
T1 construct: host or cells: AsPC-1 human pancreatic cancer cells
Assay: RAS G12D degradation activity, Cell ELISA, AsPC-1
Format: cell-based
Details: AsPC-1 cells, 24 hours; read-out: DC50 (RAS G12D 50% degradation value)
Protocol: Test Example 1-2: Evaluation of RAS G12D Degradation Activity on Human KRAS G12D Mutant-Positive Pancreatic Cancer Line AsPC-1
The RAS G12D degradation activities of subject compounds were evaluated in the same manner as in Test Example 1-1 by measuring the expression levels of RAS G12D by a Cell ELISA method.
AsPC-1 cells (ATCC, CRL-1682) were seeded at 36 μL per well on a 384-well plate to give 2.0×10^4 cells per well. As for the cell culture conditions, RPMI-1640 medium (from Sigma-Aldrich) containing 10% fetal bovine serum was used in the presence of 5% CO2 at 37° C.
The next day, the subject compounds (10 points having final concentrations in the range of 3 μM to 0.1 nM) and DMSO, which was the solvent for the subject compounds, as a negative control were diluted 100-fold with a fresh medium and were each added at 4 μL per well, followed by culturing for 24 hours.
The next day, the procedures from the immobilization of the cells to before the addition of the blocking solution were performed by the same methods as in Test Example 1-1. A blocking solution (Intercept Blocking Buffer; from LI-COR Biosciences) was added at 20 μL per well. After allowing the plate to stand for 30 minutes at room temperature, the supernatant was removed by centrifugation. A solution obtained by diluting an anti-R-actin antibody (1,000-fold dilution) with the blocking solution was added to the wells of the positive control as a primary antibody, and a solution obtained by diluting an anti-Ras (G12D Mutant Specific) antibody (Ras (G12D Mutant Specific) (D8H7) Rabbit mAb; from Cell Signaling Technology; 1,000-fold dilution) and an anti-3-actin antibody (1,000-fold dilution) with the blocking solution was added to the other wells as primary antibodies, each at 15 μL per well. The plate was allowed to stand overnight at 4° C.
The next day, the supernatant was removed by centrifugation, and the plate was washed with PBS. The supernatant was removed by centrifugation, and a solution obtained by diluting an anti-rabbit IgG antibody and an anti-mouse IgG antibody 1,000-fold with the blocking solution was added at 15 μL per well as secondary antibodies. After allowing the plate to stand at room temperature for an hour, the supernatant was removed by centrifugation, and the plate was washed with PBS. After removing the supernatant, the plate was dried as it was with air at room temperature for two hours or more, and the 700-nm and 800-nm fluorescent signals were measured with Aerius.
With the RAS G12D signaling value at the time of addition of DMSO corrected with the signaling value of β-actin taken as 0% and with the RAS G12D signaling value under the conditions of staining with the anti-β-actin antibody alone taken as 100%, the RAS G12D degradation rates were calculated. The 50% degradation values (DC50) were calculated by Sigmoid-Emax model nonlinear regression analysis.

T1 sequence (P01116 1-188 isoform P01116-2 G12D): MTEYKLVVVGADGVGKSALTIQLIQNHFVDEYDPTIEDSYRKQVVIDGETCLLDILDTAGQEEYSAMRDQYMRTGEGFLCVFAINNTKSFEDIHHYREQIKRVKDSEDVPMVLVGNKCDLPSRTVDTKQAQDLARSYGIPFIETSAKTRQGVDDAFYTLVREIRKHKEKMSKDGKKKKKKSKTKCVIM

In order of falling DC50:
1. Cc1ncsc1-c1ccc([C@H](CO)NC(=O)[C@@H]2C[C@@H](O)CN2C(=O)[C@H](C(C)C)n2cc(-c3ccc(COc4c(-c5c(C)c(F)cc6[nH]ncc56)c(C5CC5)cc5c(NC6CN(c7ncccn7)C6)nc(OC6CCOCC6)nc45)cc3)nn2)cc1 [Example 15, (4R)-1-[(2S)-2-{4-[4-({[(7M)-6-cyclopropyl-7-(6-fluoro-5-methyl-1H-indazol-4-yl)-2-[(oxan-4-yl)oxy]-4-{[1-(pyrimidin-2-yl)azetidin-3-yl]amino}quinazolin-8-yl]oxy}methyl)phenyl]-1H-1,2,3-triazol-1-yl}-3-methylbutanoyl]-4-hydroxy-N-{(1R)-2-hydroxy-1-[4-(4-methyl-1,3-thiazol-5-yl)phenyl]ethyl}-L-prolinamide]  146 nM
2. CNCCNC(=O)N1CC(Oc2nc(OC[C@H](C)OC)nc3c(OCc4ccc(-c5cn([C@H](C(=O)N6C[C@H](O)C[C@H]6C(=O)N[C@@H](CO)c6ccc(-c7scnc7C)cc6)C(C)C)nn5)cc4)c(-c4c(C)c(F)cc5[nH]ncc45)c(C4CC4)cc23)C1 (atropisomer, axis not shown) [Example 18]  26 nM
3. CO[C@@H](C)COc1nc(NC2CN(C(=O)O[C@H]3C[C@@H](N(C)C)C3)C2)c2cc(C3CC3)c(-c3c(C)c(F)cc4[nH]ncc34)c(OCc3ccc(-c4cn([C@H](C(=O)N5C[C@H](O)C[C@H]5C(=O)N[C@@H](CO)c5ccc(N6CCOC6=O)cc5)C(C)C)nn4)cc3)c2n1 (atropisomer, axis not shown) [Example 4]  20 nM
4. CO[C@@H](C)COc1nc(N2CC(C#N)C2)c2cc(C3CC3)c(-c3c(C)c(F)cc4[nH]ncc34)c(OCc3ccc(-c4cn([C@H](C(=O)N5C[C@H](O)C[C@H]5C(=O)N[C@@H](CO)c5ccc(-c6scnc6C)cc5)C(C)C)nn4)cc3)c2n1 (atropisomer, axis not shown) [Example 20]  16 nM
5. CO[C@@H](C)COc1nc(OC2CN(C(=O)NCCN(C)C)C2)c2cc(C3CC3)c(-c3c(C)c(F)cc4[nH]ncc34)c(OCc3ccc(-c4cn([C@H](C(=O)N5C[C@H](O)C[C@H]5C(=O)N[C@@H](CO)c5ccc(-c6scnc6C)cc5)C(C)C)nn4)cc3)c2n1 (atropisomer, axis not shown) [Example 17]  11 nM
6. CO[C@@H](C)COc1nc(N2CCOCC2)c2cc(C3CC3)c(-c3c(C)c(F)cc4[nH]ncc34)c(OCc3ccc(-c4cn([C@H](C(=O)N5C[C@H](O)C[C@H]5C(=O)N[C@@H](CO)c5ccc(-c6scnc6C)cc5)C(C)C)nn4)cc3)c2n1 (atropisomer, axis not shown) [Example 21]  8 nM
7. CO[C@@H](C)COc1nc(NC2CN(C(=S)N3CC(CN(C)C)C3)C2)c2cc(C3CC3)c(-c3c(C)c(F)cc4[nH]ncc34)c(OCc3ccc(-c4cn([C@H](C(=O)N5C[C@H](O)C[C@H]5C(=O)N[C@@H](CO)c5ccc(-n6cncn6)cc5)C(C)C)nn4)cc3)c2n1 (atropisomer, axis not shown) [Example 26]  6 nM
8. CO[C@@H](C)COc1cc(OC2CN(C(=O)C3CN(C)C3)C2)c2cc(C3CC3)c(-c3c(C)c(F)cc4[nH]ncc34)c(OCc3ccc(-c4cn([C@H](C(=O)N5C[C@H](O)C[C@H]5C(=O)N[C@@H](CO)c5ccc(-n6cncn6)cc5)C(C)C)nn4)cc3)c2n1 (atropisomer, axis not shown) [Example 42]  6 nM
9. COC(C)(C)COc1cc(OC2CN(C(=O)N3CC(CN(C)C)C3)C2)c2cc(C3CC3)c(-c3c(C)c(F)cc4[nH]ncc34)c(OCc3ccc(-c4cn([C@H](C(=O)N5C[C@H](O)C[C@H]5C(=O)N[C@@H](CO)c5ccc(-n6cncn6)cc5)C(C)C)nn4)cc3)c2n1 (atropisomer, axis not shown) [Example 9]  5 nM
10. CO[C@@H](C)COc1nc(NC2CN(C(=O)O[C@H]3C[C@@H](N(C)C)C3)C2)c2cc(C3CC3)c(-c3c(C)c(F)cc4[nH]ncc34)c(OCc3ccc(-c4cn([C@H](C(=O)N5C[C@H](O)C[C@H]5C(=O)N[C@@H](CO)c5ccc(-n6cncn6)cc5)C(C)C)nn4)cc3)c2n1 (atropisomer, axis not shown; (M)) [Example 2, (1s,3R)-3-(dimethylamino)cyclobutyl 3-({(7M)-6-cyclopropyl-7-(6-fluoro-5-methyl-1H-indazol-4-yl)-8-{[4-(1-{(2S)-1-[(2S,4R)-4-hydroxy-2({(1R)-2-hydroxy-1-[4-(1H-1,2,4-triazol-1-yl)phenyl]ethyl}carbamoyl)pyrrolidin-1-yl]-3-methyl-1-oxobutan-2-yl}-1H-1,2,3-triazol-4-yl)phenyl]methoxy}-2-[(2S)-2-methoxypropoxy]quinazolin-4-yl}amino)azetidine-1-carboxylate]  5 nM
11. CO[C@@H](C)COc1cc(OC2CN(C(=O)N3CC(CN(C)C)C3)C2)c2cc(C3CC3)c(-c3c(C)c(F)cc4[nH]ncc34)c(OCc3ccc(-c4cn([C@H](C(=O)N5C[C@H](O)C[C@H]5C(=O)N[C@@H](CO)c5ccc(-c6ocnc6C)cc5)C(C)C)nn4)cc3)c2n1 (atropisomer, axis not shown; (M)) [Example 6, (4R)-1-[(2S)-2-(4-{4-[({(7M)-6-cyclopropyl-4-[(1-{3-[(dimethylamino)methyl]azetidine-1-carbonyl}azetidin-3-yl)oxy]-7-(6-fluoro-5-methyl-1H-indazol-4-yl)-2-[(2S)-2-methoxypropoxy]quinolin-8-yl}oxy)methyl]phenyl}-1H-1,2,3-triazol-1-yl)-3-methylbutanoyl]-4-hydroxy-N-{(1R)-2-hydroxy-1-[4-(4-methyl-1,3-oxazol-5-yl)phenyl]ethyl}-L-prolinamide]  5 nM
12. CO[C@@H](C)COc1nc(N(C)[C@H]2CCN(C(=O)NCCN(C)C)C2)c2cc(C3CC3)c(-c3c(C)c(F)cc4[nH]ncc34)c(OCc3ccc(-c4cn([C@H](C(=O)N5C[C@H](O)C[C@H]5C(=O)N[C@@H](CO)c5ccc(-c6scnc6C)cc5)C(C)C)nn4)cc3)c2n1 (atropisomer, axis not shown) [Example 19]  4 nM
13. CO[C@@H](C)COc1nc(NC2CN(C(=O)N3CC(CN(C)C)C3)C2)c2cc(C3CC3)c(-c3c(C)c(F)cc4[nH]ncc34)c(OCc3ccc(-c4cn([C@H](C(=O)N5C[C@H](O)C[C@H]5C(=O)N[C@@H](CO)c5ccc(-c6scnc6C)cc5)C(C)C)nn4)cc3)c2n1 (atropisomer, axis not shown) [Example 25]  3 nM
14. CO[C@@H](C)COc1cc(OC2CN(C(=O)CCCN(C)C)C2)c2cc(C3CC3)c(-c3c(C)c(F)cc4[nH]ncc34)c(OCc3ccc(-c4cn([C@H](C(=O)N5C[C@H](O)C[C@H]5C(=O)N[C@@H](CO)c5ccc(-n6cncn6)cc5)C(C)C)nn4)cc3)c2n1 (atropisomer, axis not shown; (M)) [Example 41, (4R)-1-[(2S)-2-(4-{4-[({(7M)-6-cyclopropyl-4-({1-[4-(dimethylamino)butanoyl]azetidin-3-yl}oxy)-7-(6-fluoro-5-methyl-1H-indazol-4-yl)-2-[(2S)-2-methoxypropoxy]quinolin-8-yl}oxy)methyl]phenyl}-1H-1,2,3-triazol-1-yl)-3-methylbutanoyl]-4-hydroxy-N-{(1R)-2-hydroxy-1-[4-(1H-1,2,4-triazol-1-yl)phenyl]ethyl}-L-prolinamide]  3 nM
15. CO[C@@H](C)COc1cc(OC2CN(C(=O)N3CC(CN(C)C)C3)C2)c2cc(C3CC3)c(-c3c(C)c(F)cc4[nH]ncc34)c(OCc3ccc(-c4cn([C@H](C(=O)N5C[C@H](O)C[C@H]5C(=O)N[C@@H](CO)c5ccc(-c6scnc6C)cc5)C(C)C)nn4)cc3)c2n1 (atropisomer, axis not shown; (M)) [Example 14, (4R)-1-[(2S)-2-(4-{4-[({(7M)-6-cyclopropyl-4-[(1-{3-[(dimethylamino)methyl]azetidine-1-carbonyl}azetidin-3-yl)oxy]-7-(6-fluoro-5-methyl-1H-indazol-4-yl)-2-[(2S)-2-methoxypropoxy]quinolin-8-yl}oxy)methyl]phenyl}-1H-1,2,3-triazol-1-yl)-3-methylbutanoyl]-4-hydroxy-N-{(1R)-2-hydroxy-1-[4-(4-methyl-1,3-thiazol-5-yl)phenyl]ethyl}-L-prolinamide]  2 nM
16. CO[C@@H](C)COc1nc(N[C@H]2C[C@H](OCCN(C)C)C2)c2cc(C3CC3)c(-c3c(C)c(F)cc4[nH]ncc34)c(OCc3ccc(-c4cn([C@H](C(=O)N5C[C@H](O)C[C@H]5C(=O)N[C@@H](CO)c5ccc(-c6scnc6C)cc5)C(C)C)nn4)cc3)c2n1 (atropisomer, axis not shown) [Example 23]  1 nM
